{
  "source": "paper PMC6050662",
  "about": "“Lycorine inhibits glioblastoma multiforme growth through EGFR suppression” (Journal of Experimental & Clinical Cancer Research : CR, 2018)",
  "target": "T1, EGFR (Homo sapiens, UniProt P00533)",
  "T1 construct": "GST-tagged EGFR (696–1022), intracellular kinase domain",
  "T1 sequence (P00533 696-1022)": "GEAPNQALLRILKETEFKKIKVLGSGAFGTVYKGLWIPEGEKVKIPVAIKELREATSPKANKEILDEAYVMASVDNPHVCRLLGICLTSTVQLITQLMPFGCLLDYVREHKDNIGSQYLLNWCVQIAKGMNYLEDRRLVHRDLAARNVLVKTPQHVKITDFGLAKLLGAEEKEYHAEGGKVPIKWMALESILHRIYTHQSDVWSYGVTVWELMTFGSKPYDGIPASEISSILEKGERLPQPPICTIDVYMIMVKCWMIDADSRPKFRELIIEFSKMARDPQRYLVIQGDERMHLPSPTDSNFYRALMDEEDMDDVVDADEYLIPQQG",
  "assay": "SPR (Biacore T200, GST-EGFR captured by anti-GST on CM5 chip); also kinase assay (Kinase-Glo) IC50 about […]",
  "format": "binding",
  "data": [
    {"smiles": "O[C@H]1[C@H]2c3cc4c(cc3CN3CCC(=C[C@@H]1O)[C@H]23)OCO4", "note": "[Lycorine]", "values": [
      {"measurement": "Kd", "value": "~3.6", "unit": "µM"}
    ]}
  ]
}
